Source: article PMC6736837, “^18F-labelled triazolyl-linked argininamides targeting the neuropeptide Y Y1R for PET imaging of mammary carcinoma” (Scientific Reports, 2019)

Key:
hY1R = biological target: T1, hY1R (Homo sapiens, UniProt P25929); experiment: Y1R competition binding with [^3H]UR-MK299 on SK-N-MC neuroblastoma cells; details: displacement of [^3H]UR-MK299, SK-N-MC neuroblastoma cells
T1 construct: endogenous in cells; host or cells: SK-N-MC neuroblastoma cells
T1 sequence (P25929 1-384): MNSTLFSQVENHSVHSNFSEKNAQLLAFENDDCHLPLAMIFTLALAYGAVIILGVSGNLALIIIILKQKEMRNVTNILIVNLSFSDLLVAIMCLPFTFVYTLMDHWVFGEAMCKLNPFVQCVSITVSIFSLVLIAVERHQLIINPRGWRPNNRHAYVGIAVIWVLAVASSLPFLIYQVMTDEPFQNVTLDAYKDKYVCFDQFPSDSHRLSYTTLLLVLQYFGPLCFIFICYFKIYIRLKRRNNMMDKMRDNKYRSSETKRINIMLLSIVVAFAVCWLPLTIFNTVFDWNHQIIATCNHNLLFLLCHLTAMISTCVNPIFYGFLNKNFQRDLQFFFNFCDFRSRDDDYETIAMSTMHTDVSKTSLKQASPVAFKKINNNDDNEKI
Experimental: (§1) Data analysis (four-parameter sigmoidal fitting of specifically bound radioligand plotted against log(concentration) competitor) was performed using SigmaPlot (Systat Software, San Jose, CA, USA) (Y1R binding). IC50 values were converted to Ki values according to the Cheng-Prusoff equation[24].

hY4R = biological target: T2, hY4R (Homo sapiens, UniProt P50391); experiment: Competition binding on CHO-hY4R-Gqi5-mtAEQ cells with [^3H]UR-KK200; details: for Ki: CHO-hY4R-Gqi5-mtAEQ cells, [^3H]UR-KK200; for selectivity for Y1R over Y4R (multiple of the Ki value for Y1R): calculated from Ki values; for binding to Y4R (in words): maximum concentration of 10 µM
T2 construct: expressed in transfected cells; host or cells: CHO cells (CHO-hY4R-Gqi5-mtAEQ)
Experimental: as §1
(§2) Table S1: Structures, in-vitro Y1 receptor affinities and selectivities of potential Y1R PET radioligands. For Y2R, Y4R and Y5R, Ki values are given in the first row. In the second row, the calculated selectivities for Y1R over Y2R, Y4R and Y5R are given as a multiple of the Ki value for […]
(§3) compound structure hY1R hY2R hY4R hY5R
(§4) Ki ± SEMa Kiselectivity selectivity selectivity […]
(§5) aDetermined by competition binding on SK-N-MC neuroblastoma cells using the radioligand [3H]UR-MK2994.
(§6) Mean Ki values ± SEM are the results of three individual experiments each performed in triplicate. bDetermined by competition binding at CHO-hY2-Gqi5-mtAEQ cells and HEC-1b hY5R cells using the radioligand [3H]propionyl-pNPY. Two independent experiments were performed in triplicate. cDetermined by competition binding on CHO-hY4R-Gqi5-mtAEQ cells using the radioligand [3H]UR-KK200.
(§7) Two independent experiments were performed in triplicate.
(§8) SEM = standard error of the mean. […]

hY2R = biological target: T3, hY2R (Homo sapiens, UniProt P49146); experiment: Competition binding on CHO-hY2-Gqi5-mtAEQ cells with [^3H]propionyl-pNPY; details: for selectivity for Y1R over Y2R (multiple of the Ki value for Y1R): calculated from Ki values; for binding to Y2R (in words): maximum concentration of 10 µM
T3 construct: expressed in transfected cells; host or cells: CHO cells (CHO-hY2-Gqi5-mtAEQ)
T3 sequence (P49146 1-381): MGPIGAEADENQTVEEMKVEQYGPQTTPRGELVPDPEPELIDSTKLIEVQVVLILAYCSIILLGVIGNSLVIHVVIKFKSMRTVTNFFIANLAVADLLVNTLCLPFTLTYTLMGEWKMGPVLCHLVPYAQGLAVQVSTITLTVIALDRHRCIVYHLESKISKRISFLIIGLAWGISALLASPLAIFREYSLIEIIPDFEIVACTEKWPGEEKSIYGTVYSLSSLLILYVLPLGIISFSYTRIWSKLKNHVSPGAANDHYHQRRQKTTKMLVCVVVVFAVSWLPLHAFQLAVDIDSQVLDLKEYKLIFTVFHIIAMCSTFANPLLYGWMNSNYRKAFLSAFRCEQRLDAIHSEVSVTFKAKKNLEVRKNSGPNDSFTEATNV
Experimental: as §1, §2, §3, §4, §5, §6, §7, §8

hY5R = biological target: T4, hY5R (Homo sapiens, UniProt Q15761); experiment: Competition binding on HEC-1b hY5R cells with [^3H]propionyl-pNPY; details: for selectivity for Y1R over Y5R (multiple of the Ki value for Y1R): calculated from Ki values; for binding to Y5R (in words): maximum concentration of 10 µM
T4 construct: expressed in transfected cells; host or cells: HEC-1b cells (HEC-1b hY5R)
T4 sequence (Q15761 1-445): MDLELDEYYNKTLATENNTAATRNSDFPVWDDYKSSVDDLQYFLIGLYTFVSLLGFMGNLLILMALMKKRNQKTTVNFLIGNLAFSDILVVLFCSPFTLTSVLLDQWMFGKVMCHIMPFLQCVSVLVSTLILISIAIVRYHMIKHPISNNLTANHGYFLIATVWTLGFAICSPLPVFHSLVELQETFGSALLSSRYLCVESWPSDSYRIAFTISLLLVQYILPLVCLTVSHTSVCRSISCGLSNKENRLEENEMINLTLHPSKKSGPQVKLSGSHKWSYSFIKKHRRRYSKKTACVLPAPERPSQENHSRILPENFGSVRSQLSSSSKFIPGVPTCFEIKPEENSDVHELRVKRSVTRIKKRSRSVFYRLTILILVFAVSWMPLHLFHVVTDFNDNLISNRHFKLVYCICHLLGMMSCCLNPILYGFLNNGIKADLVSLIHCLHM
Experimental: as §1, §2, §3, §4, §5, §6, §7, §8

T2 sequence (P50391 whole entry): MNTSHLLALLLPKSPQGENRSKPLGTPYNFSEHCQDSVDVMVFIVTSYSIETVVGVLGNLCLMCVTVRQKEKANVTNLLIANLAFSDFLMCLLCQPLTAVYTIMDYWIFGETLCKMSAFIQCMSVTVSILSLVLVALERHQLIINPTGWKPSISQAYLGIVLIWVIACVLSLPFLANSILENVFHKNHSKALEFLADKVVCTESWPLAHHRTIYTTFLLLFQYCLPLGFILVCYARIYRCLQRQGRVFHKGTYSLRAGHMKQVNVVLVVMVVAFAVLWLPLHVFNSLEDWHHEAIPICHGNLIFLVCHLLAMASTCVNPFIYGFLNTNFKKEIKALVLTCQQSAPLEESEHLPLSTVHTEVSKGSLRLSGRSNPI

Structure (SMILES)	Ki (hY1R) [µM]	Ki (hY4R) [µM]	selectivity for Y1R over Y4R (multiple of the Ki value for Y1R) (hY4R) [×]	binding to Y4R (in words) (hY4R)	Ki (hY2R) [µM]	selectivity for Y1R over Y2R (multiple of the Ki value for Y1R) (hY2R) [×]	binding to Y2R (in words) (hY2R)	Ki (hY5R) [µM]	selectivity for Y1R over Y5R (multiple of the Ki value for Y1R) (hY5R) [×]	binding to Y5R (in words) (hY5R)
C#CCNC(=O)N=C(N)NCCC[C@@H](NC(=O)C(c1ccccc1)c1ccccc1)C(=O)NCc1ccc(O)cc1 [compound 7]	0.00094	–	–	–	–	–	–	–	–	–
N/C(=N/C(=O)NCc1cn([C@@H]2OC(CF)[C@@H](O)C(O)C2O)nn1)NCCC[C@@H](NC(=O)C(c1ccccc1)c1ccccc1)C(=O)NCc1ccc(O)cc1 (stereo partly drawn) [compound 11, (2R)‐5‐{[(1Z)‐Amino({[({1‐[(2R,5S)‐6‐(fluoromethyl)‐3,4,5‐trihydroxyoxan‐2‐yl]‐1H‐1,2,3‐triazol‐4‐yl}methyl)carbamoyl]imino})methyl]amino}‐2‐(2,2‐diphenylacetamido)‐N‐[(4‐hydroxyphenyl)-methyl]pentanamide]	0.208	> 3	> 14	None of the three compounds showed considerable binding	> 10	> 48	None of the three compounds showed considerable binding	> 15	> 72	None of the three compounds showed considerable binding
N/C(=N/C(=O)NCc1cn(CCOCCF)nn1)NCCC[C@@H](NC(=O)C(c1ccccc1)c1ccccc1)C(=O)NCc1ccc(O)cc1 [compound 12, (2R)‐5‐{[(1Z)‐Amino({[({1‐[2‐(2‐fluoroethoxy)ethyl]‐1H‐1,2,3‐triazol‐4‐yl}methyl)carbamoyl]-imino})methyl]amino}‐2‐(2,2‐diphenylacetamido)‐N‐[(4‐hydroxyphenyl)methyl]pentanamide]	0.0028	> 10	> 3610	None of the three compounds showed considerable binding	> 10	> 3610	None of the three compounds showed considerable binding	> 15	> 5415	None of the three compounds showed considerable binding
N/C(=N/C(=O)NCc1cn(CCOCCOCCOCCF)nn1)NCCC[C@@H](NC(=O)C(c1ccccc1)c1ccccc1)C(=O)NCc1ccc(O)cc1 [compound 13, (2R)‐5‐{[(1Z)‐Amino[({[1‐(2‐{2‐[2‐(2‐fluoroethoxy)ethoxy]ethoxy}ethyl)‐1H‐1,2,3‐triazol‐4‐yl]methyl}carbamoyl)imino]methyl]amino}‐2‐(2,2‐diphenylacetamido)‐N‐[(4‐hydroxyphenyl)-methyl]pentanamide]	0.029	> 10	> 345	None of the three compounds showed considerable binding	> 5	> 173	None of the three compounds showed considerable binding	> 10	> 345	None of the three compounds showed considerable binding
